The values below come from article PMC10298512, “Synthesis and Anticancer Evaluation of Novel 7-Aza-Coumarine-3-Carboxamides” (International Journal of Molecular Sciences, 2023).

Where only a bound is given, the exact number is not on record here.

One series relates to M-HeLa. As to the kind of experiment: MTT cytotoxicity test, M-HeLa cells. Type of series: cell-based, human. Conditions: Homo sapiens, M-HeLa, 24 h incubation, tested at 1–100 µM, three independent experiments, read-out: IC50 (µM) Cancer Cell Lines M-HeLa.
The subject of the next series is HuTu 80. Kind of series: MTT cytotoxicity test, HuTu 80 cells. It counts as cell-based, human. Conditions: for IC50: Homo sapiens, HuTu80, MTT test, 24 h incubation, tested at 1–100 µM, three independent experiments, read-out: IC50 (µM) Cancer Cell Lines HuTu 80; for selectivity index, SI = IC50(Chang liver)/IC50(HuTu 80): normal Chang liver vs HuTu 80. In general terms: Tetrazolium dyes change colour on reduction, which living cells bring about.

Another series deals with Chang liver. Kind of series: MTT cytotoxicity test, normal Chang liver cells. It counts as cell-based, human. Conditions: Homo sapiens, Chang liver, 24 h incubation, tested at 1–100 µM, three independent experiments, read-out: IC50 (µM) Normal Cell Lines Chang Liver.
Series [1] has as its system HuTu 80 cells. As to the kind of experiment: Cell apoptosis analysis by flow cytometry (annexin V-Alexa Fluor 647 / propidium iodide). Type of series: cell-based, human. Conditions: HuTu 80, IC50/2 and IC50 concentrations, 24-h incubation. The source says:
Induction of apoptosis is one of the most important mechanisms of anticancer activity. The apoptosis-inducing effect in HuTu 80 cells was studied by flow cytometry using sets of annexin V binding to the apoptosis marker phosphatidylserine. On the surface of the membranes of healthy cells, phosphatidylserine is contained in a minimal amount. Therefore, the interaction of annexin V with these cells is negligible. During apoptosis, phosphatidylserine molecules appear on the cell surface and can interact with the protein. This interaction leads to an increase in the fluorescence intensity of apoptotic cells, which is recorded by a flow cytometer. The apoptosis-inducing effect was evaluated using the example of the leader compound 7r at IC50/2 and IC50 concentrations on the HuTu 80 cell line (Figure 1).
(§1) Cell Culture. HuTu 80 cells at 1 × 10^6 cells/well in a final volume of 2 mL were seeded into six-well plates.
Cell Apoptosis Analysis. […] The cells were harvested at 2000 rpm for 5 min and then washed twice with ice-cold PBS, followed by resuspension in binding buffer. Next, the samples were incubated with 5 μL of annexin V- Alexa Fluor 647 (Sigma-Aldrich, St. Louis, MO, USA) and 5 μL of propidium iodide (Sigma-Aldrich, St. Louis, MO, USA) for 15 min at room temperature in the dark. Finally, the cells were analyzed using flow cytometry (Guava easy Cyte, MERCK, Darmstadt, Germany) within 1 h. […]

Series [2] has as its system HuTu 80 cells. As to the kind of experiment: Mitochondrial membrane potential by flow cytometry (JC-10). Type of series: cell-based, human. Conditions: HuTu 80, IC50/2 and IC50 concentrations, 24-h incubation. The source says: Violation of the functions of the mitochondria of the cell is one of the most common signs of apoptosis inherent in eukaryotic organisms. With mitochondrial dysfunction, pro-apoptotic factors are released into the cytoplasm—cytochrome c, AIF, Smac/DIABLO, endonuclease G, as well as proforms of caspases 2, 3, and 9—inducing the cascade. The release of these protein factors can be associated both with the rupture of mitochondrial membranes and with the activation of specific channels in the outer mitochondrial membrane. This usually leads to a change in the mitochondrial membrane potential (ΔΨm) due to a change in the permeability of the inner mitochondrial membrane for H+ protons. […] The principle of operation of these dyes is determined by their ability to spontaneously penetrate through the cytoplasmic membranes of cells, as well as the outer and inner membranes of mitochondria and accumulate in areas with a high concentration of protons, that is, under the inner mitochondrial membrane. This effect is accompanied by a change in the intensity of cell fluorescence, which is recorded by cytofluorimetry. […] JC-10 accumulates in the mitochondrial matrix and forms aggregates (J-aggregates) with red fluorescence in normal cells with a high mitochondrial membrane potential. […]

Series [3] concerns HuTu 80 cells. Kind of series: Detection of intracellular ROS by flow cytometry (CellROX Deep Red). Type of series: cell-based, human. Conditions: for Fluorescence intensity (CellROX Deep Red, ROS production): 24 h.
From the text: Increased generation of reactive oxygen species (ROS) by the test compounds can also characterize the development of apoptosis along the mitochondrial pathway. Mitochondria are both a potential source and target of ROS. An increase in ROS production leads to the disruption of mitochondrial functions and, subsequently, to irreversible damage and cell death. In this regard, the effect of lead compound 7r at IC50/2 and IC50 concentrations on ROS production in HuTu 80 cells was investigated using a flow cytometry assay and the CellROX® Deep Red flow cytometry kit. […] This indicates an increase in ROS production in the presence of the test compound.
as §1
ROS generation was investigated using a flow cytometry assay and CellROX® Deep Red flow cytometry kit. For this, […] cells were harvested at 2000 rpm for 5 min and then washed twice with ice-cold PBS, followed by resuspension in 0.1 mL of medium without FBS, to which we added 0.2 μL of CellROX® Deep Red (Thermo Fisher Scientific, Waltham, MA, USA) and incubated at 37 °C for 30 min After three times washing the cells and suspending them in PBS, the production of ROS in the cells was immediately monitored using flow cytometer Guava easy Cyte, MERCK).
A general note: In flow cytometry, cells or beads pass a laser one at a time.

What is called IC50 is the point on the concentration scale where inhibition reaches its midpoint. For orientation: melting point means the temperature, or range, at which the solid turns liquid. For `Cc1ncc(CCl)c2cc(C(=O)Nc3ccc(NC(=O)c4cc5c(CCl)cnc(C)c5oc4=O)cc3)c(=O)oc12` [7q, N,N′-(1,4-Phenylene)bis(5-(chloromethyl)-8-methyl-2-oxo-2H-pyrano[2,3-c]pyridine-3-carboxamide)], the melting point was greater than 300 °C. The IC50 in the series with M-HeLa was 84.3 ± 5.9 µM. In the series with HuTu 80, the IC50 came to 95.4 ± 6.5 µM. Moreover, the concentration for half-maximal inhibition (IC50) with Chang liver is greater than 100 µM.

Take `Cc1ncc(CCl)c2cc(C(=O)Nc3ccc(S(=O)(=O)c4ccc(NC(=O)c5cc6c(CCl)cnc(C)c6oc5=O)cc4)cc3)c(=O)oc12` [7r, N,N′-(Sulfonylbis(4,1-phenylene))bis(5-(chloromethyl)-8-methyl-2-oxo-2H-pyrano[2,3-c]pyridine-3-carboxamide)]: the IC50 in the series on M-HeLa is 64.5 ± 4.5 µM; with HuTu 80, 5.5 ± 0.4 µM; with Chang liver it was 78 ± 5.9 µM. For the same compound, the “selectivity index, SI = IC50(Chang liver)/IC50(HuTu 80)” value with HuTu 80 was 14. The “apoptosis-inducing effect (in words)” value with HuTu 80 cells [1] is given as “apoptotic effects were registered”. Further, the “change in mitochondrial membrane potential (in words)” value in the series with HuTu 80 cells [2] is on record as “decrease in the mitochondrial membrane potential”. The “Fluorescence intensity (CellROX Deep Red, ROS production)” value with HuTu 80 cells [3] (HuTu 80, 2.8 µM (IC50/2)) is 1400; with HuTu 80 cells [3] (HuTu 80, 5.5 µM (IC50)) it was 1700. In the series on HuTu 80 cells [3] (HuTu 80, IC50/2 and IC50 concentrations), the “ROS production vs control (in words)” value is reported as “significant increase”.

The compound `Cc1ncc(CCl)c2cc(C(=O)Nc3cccc(S(=O)(=O)c4cccc(NC(=O)c5cc6c(CCl)cnc(C)c6oc5=O)c4)c3)c(=O)oc12` [7s, N,N′-(Sulfonylbis(3,1-phenylene))bis(5-(chloromethyl)-8-methyl-2-oxo-2H-pyrano[2,3-c]pyridine-3-carboxamide)] showed a melting point greater than 300 °C. In addition, the IC50 with M-HeLa was determined as 80 ± 5.7 µM. In addition, in the series on HuTu 80, the IC50 was determined as 13.8 ± 1.1 µM and the “selectivity index, SI = IC50(Chang liver)/IC50(HuTu 80)” value turned out to be 9. In addition, the IC50 in the series on Chang liver is 125 ± 11 µM.
